Data on 14 molecules can be found in US11739098B2 (BRISTOL-MYERS SQUIBB COMPANY, priority 2017, dated 2023).

Format in all cases: cell-based
The target in assay [1] is T1, human TLR7 (Homo sapiens, UniProt Q9NYK1).
T1 construct: host or cells: HEK-Blue cells (HEK293-derived reporter line)
T1 sequence (Q9NYK1 27-1049): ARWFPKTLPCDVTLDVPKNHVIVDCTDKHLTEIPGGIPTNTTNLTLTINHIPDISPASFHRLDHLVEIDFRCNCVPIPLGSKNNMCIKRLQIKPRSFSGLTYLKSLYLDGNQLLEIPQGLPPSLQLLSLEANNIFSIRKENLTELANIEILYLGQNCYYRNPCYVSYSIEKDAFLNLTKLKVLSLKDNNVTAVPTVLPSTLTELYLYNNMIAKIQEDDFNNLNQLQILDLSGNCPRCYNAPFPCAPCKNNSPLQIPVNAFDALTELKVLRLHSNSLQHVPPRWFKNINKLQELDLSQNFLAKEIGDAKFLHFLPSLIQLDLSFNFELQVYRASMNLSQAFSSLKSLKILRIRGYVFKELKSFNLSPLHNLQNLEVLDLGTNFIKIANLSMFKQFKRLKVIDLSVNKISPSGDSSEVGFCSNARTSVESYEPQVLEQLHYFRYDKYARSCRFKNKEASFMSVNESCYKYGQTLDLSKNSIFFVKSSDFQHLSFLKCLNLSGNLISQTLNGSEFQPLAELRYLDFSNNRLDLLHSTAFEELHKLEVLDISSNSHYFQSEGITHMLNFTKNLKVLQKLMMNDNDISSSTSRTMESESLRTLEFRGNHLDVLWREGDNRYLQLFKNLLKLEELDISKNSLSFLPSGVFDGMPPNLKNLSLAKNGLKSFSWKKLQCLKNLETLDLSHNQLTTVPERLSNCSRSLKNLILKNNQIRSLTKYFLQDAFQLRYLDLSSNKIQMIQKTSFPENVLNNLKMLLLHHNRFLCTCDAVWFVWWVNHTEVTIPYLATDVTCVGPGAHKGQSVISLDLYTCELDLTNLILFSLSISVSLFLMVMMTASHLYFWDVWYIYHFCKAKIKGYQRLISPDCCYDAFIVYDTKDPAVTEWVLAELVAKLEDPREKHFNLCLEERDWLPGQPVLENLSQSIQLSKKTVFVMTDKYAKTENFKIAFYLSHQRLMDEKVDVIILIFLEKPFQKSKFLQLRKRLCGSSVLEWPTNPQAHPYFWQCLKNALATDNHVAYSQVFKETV
Kind of assay: TLR7 inhibition reporter assay (HEK-Blue cells, SEAP reporter, gardiquimod stimulation). As to conditions: HEK-Blue cells overexpressing human TLR7, SEAP reporter, gardiquimod 7.5 μM. A digest of the protocol:
(§1)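 Percent inhibition of agonist-induced SEAP secretion in HEK-Blue cells after 22 h at 37 °C. Stimuli: 7.5 μM gardiquimod, 15.9 μM R848, 5 nM ODN2006 for TLR7, TLR8 and TLR9, added after 30 min compound exposure over a 0.05 nM–50 μM range.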

The target in assay [2] is T2, human TLR9 (Homo sapiens, UniProt Q9NR96).
T2 construct: host or cells: HEK-Blue cells (HEK293-derived reporter line)
T2 sequence (Q9NR96 26-1032): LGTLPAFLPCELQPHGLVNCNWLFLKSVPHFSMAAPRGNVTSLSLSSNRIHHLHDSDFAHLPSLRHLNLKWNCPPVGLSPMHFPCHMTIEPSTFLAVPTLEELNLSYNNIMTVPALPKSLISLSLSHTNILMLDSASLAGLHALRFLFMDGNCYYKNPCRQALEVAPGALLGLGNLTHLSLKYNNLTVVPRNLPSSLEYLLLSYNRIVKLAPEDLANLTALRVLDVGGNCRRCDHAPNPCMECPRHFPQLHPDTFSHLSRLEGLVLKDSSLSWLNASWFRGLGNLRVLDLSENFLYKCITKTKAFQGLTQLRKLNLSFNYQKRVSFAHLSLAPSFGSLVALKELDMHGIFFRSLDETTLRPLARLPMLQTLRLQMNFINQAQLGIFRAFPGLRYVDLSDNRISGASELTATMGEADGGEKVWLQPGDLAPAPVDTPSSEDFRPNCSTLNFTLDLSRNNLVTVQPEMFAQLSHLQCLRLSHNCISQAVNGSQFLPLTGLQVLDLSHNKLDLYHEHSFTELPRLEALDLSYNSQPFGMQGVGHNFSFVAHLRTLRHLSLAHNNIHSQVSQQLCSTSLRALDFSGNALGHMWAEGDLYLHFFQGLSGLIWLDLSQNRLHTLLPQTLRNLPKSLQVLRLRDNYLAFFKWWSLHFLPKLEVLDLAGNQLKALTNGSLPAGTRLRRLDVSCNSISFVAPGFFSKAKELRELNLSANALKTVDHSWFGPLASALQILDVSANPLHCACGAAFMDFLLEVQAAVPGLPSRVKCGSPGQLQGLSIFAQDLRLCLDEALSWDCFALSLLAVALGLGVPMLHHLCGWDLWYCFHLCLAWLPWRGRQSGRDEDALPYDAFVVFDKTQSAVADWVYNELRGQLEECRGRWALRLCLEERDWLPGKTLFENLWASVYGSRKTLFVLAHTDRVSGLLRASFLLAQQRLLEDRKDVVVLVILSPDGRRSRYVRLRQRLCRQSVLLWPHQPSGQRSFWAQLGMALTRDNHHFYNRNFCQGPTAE
Kind of assay: TLR9 inhibition reporter assay (HEK-Blue cells, SEAP reporter, ODN2006 stimulation). As to conditions: HEK-Blue cells overexpressing human TLR9, SEAP reporter, ODN2006 5 nM. The method in brief: as §1

The target of assay [3] is T3, human TLR8 (Homo sapiens, UniProt Q9NR97).
T3 construct: host or cells: HEK-Blue cells (HEK293-derived reporter line)
T3 sequence (Q9NR97 27-1041): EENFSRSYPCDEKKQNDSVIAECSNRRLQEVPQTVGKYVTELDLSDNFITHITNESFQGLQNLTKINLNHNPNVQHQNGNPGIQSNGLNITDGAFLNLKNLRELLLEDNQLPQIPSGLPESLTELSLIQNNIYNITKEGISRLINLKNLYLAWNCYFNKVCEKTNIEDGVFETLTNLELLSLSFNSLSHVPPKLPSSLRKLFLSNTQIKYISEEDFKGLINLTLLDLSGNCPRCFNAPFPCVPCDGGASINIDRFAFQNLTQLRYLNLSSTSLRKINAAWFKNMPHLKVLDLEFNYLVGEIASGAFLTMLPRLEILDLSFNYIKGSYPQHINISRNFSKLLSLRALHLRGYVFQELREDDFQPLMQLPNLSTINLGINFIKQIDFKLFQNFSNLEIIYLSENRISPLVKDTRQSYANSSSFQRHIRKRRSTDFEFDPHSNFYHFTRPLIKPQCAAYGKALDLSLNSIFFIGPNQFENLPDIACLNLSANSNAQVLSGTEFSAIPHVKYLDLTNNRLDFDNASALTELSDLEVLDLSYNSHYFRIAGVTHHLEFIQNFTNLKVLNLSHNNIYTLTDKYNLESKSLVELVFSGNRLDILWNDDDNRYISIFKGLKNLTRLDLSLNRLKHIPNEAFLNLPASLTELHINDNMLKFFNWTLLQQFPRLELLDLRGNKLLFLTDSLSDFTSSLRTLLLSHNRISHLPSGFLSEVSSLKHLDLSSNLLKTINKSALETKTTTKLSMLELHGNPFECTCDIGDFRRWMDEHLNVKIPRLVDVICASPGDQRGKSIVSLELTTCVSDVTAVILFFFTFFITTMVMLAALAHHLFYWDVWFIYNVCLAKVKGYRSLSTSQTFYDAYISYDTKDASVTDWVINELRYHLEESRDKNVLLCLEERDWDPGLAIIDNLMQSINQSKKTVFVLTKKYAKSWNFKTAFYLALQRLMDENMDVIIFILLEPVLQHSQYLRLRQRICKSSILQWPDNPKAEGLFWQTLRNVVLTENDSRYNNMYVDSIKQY
Kind of assay: TLR8 inhibition reporter assay (HEK-Blue cells, SEAP reporter, R848 stimulation). As to conditions: HEK-Blue cells overexpressing human TLR8, SEAP reporter, R848 15.9 μM. The method in brief:
as §1
In general terms: Reporter assays use an easily measured gene product as a stand-in for the process of interest.

On to `CC(C)c1c(-c2ccc3ncc(C#N)n3c2)[nH]c2ccc(C3CCNCC3)cc12` [Example 119, 6-(3-isopropyl-5-(piperidin-4-yl)-1H-indol-2-yl)imidazo[1,2-a]pyridine-3-carbonitrile], for which the half-inhibitory concentration (IC50) is 0.1 to 1 µM in assay [1], 1 to 50 µM in assay [2] and 0.1 to 1 µM in assay [3].

Take `Cc1cn2cc(-c3[nH]c4ccc(C5CCNCC5)cc4c3C(C)C)cc(C)c2n1` [Example 120, 6-(3-isopropyl-5-(piperidin-4-yl)-1H-indol-2-yl)-2,8-dimethylimidazo[1,2-a]pyridine]: the half-inhibitory concentration (IC50) is below 0.1 µM in assay [1], 0.1 to 1 µM in assay [2] and below 0.1 µM in assay [3].

`Cc1cc(-c2[nH]c3ccc(C4CCNCC4)cc3c2C(C)C)cn2c(C)cnc12` [Example 121, 6-(3-isopropyl-5-(piperidin-4-yl)-1H-indol-2-yl)-3,8-dimethylimidazo[1,2-a]pyridine]: the IC50 was below 0.1 µM in assay [1], 1 to 50 µM in assay [2] and 1 to 50 µM in assay [3].

For the molecule `Cc1cn2cc(-c3[nH]c4ccc(C5CCNCC5)cc4c3C(C)C)c(C)cc2n1` [Example 122, 6-(3-isopropyl-5-(piperidin-4-yl)-1H-indol-2-yl)-2,7-dimethylimidazo[1,2-a]pyridine], the half-inhibitory concentration (IC50) in assay [1] is below 0.1 µM; in assay [2], 0.1 to 1 µM; in assay [3] it was 0.1 to 1 µM.

As to `Cc1cn2c(C)c(-c3[nH]c4ccc(C5CCNCC5)cc4c3C(C)C)ccc2n1` [Example 123, 6-(3-isopropyl-5-(piperidin-4-yl)-1H-indol-2-yl)-2,5-dimethylimidazo[1,2-a]pyridine], the IC50 in assay [1] was below 0.1 µM; in assay [2] it was 0.1 to 1 µM; in assay [3] it was 0.1 to 1 µM.

In the case of `CC(C)c1c(-c2cc(CO)c3nccn3c2)[nH]c2ccc(C3CCNCC3)cc12` [Example 124, (6-(3-isopropyl-5-(piperidin-4-yl)-1H-indol-2-yl)imidazo[1,2-a]pyridin-8-yl)methanol], the IC50 in assay [1] is below 0.1 µM; in assay [2] it was 0.1 to 1 µM; in assay [3] it was below 0.1 µM.

In the case of `COc1cc(-c2[nH]c3ccc(C4CCNCC4)cc3c2C(C)C)cn2ccnc12` [Example 125, 6-(3-isopropyl-5-(piperidin-4-yl)-1H-indol-2-yl)-8-methoxyimidazo[1,2-a]pyridine], the values for the half-inhibitory concentration (IC50) in assay [1], in assay [2] and in assay [3] were below 0.1 µM, 0.1 to 1 µM and below 0.1 µM, respectively.

As for `Cc1cn2cc(-c3[nH]c4ccc(C5CCNCC5)cc4c3C(C)C)cc(F)c2n1` [Example 126, 8-fluoro-6-(3-isopropyl-5-(piperidin-4-yl)-1H-indol-2-yl)-2-methylimidazo[1,2-a]pyridine], the IC50 in assay [1] is below 0.1 µM; in assay [2] it was 0.1 to 1 µM; in assay [3], 0.1 to 1 µM.

In the case of `CC(C)c1c(-c2cc(Cl)cc3nccn23)[nH]c2ccc(C3CCNCC3)cc12` [Example 127, 7-chloro-5-(3-isopropyl-5-(piperidin-4-yl)-1H-indol-2-yl)imidazo[1,2-a]pyridine], the IC50 is below 0.1 µM in assay [1], 0.1 to 1 µM in assay [2] and below 0.1 µM in assay [3].

As to `CC(C)c1c(-c2cn3ccnc3cc2Cl)[nH]c2ccc(C3CCNCC3)cc12` [Example 128, 7-chloro-6-(3-isopropyl-5-(piperidin-4-yl)-1H-indol-2-yl)imidazo[1,2-a]pyridine], the figures for the half-inhibitory concentration (IC50) in assay [1], in assay [2] and in assay [3] were below 0.1 µM, 1 to 50 µM and below 0.1 µM, respectively.

Take `Cc1cc(-c2[nH]c3ccc(C4CCNCC4)cc3c2C(C)C)cn2c(C#N)cnc12` [Example 130, 6-(3-isopropyl-5-(piperidin-4-yl)-1H-indol-2-yl)-8-methylimidazo[1,2-a]pyridine-3-carbonitrile]: the IC50 in assay [1] is 0.1 to 1 µM; in assay [2], 1 to 50 µM; in assay [3] it was below 0.1 µM.

As for `Fc1cc(-c2[nH]c3ccc(C4CCNCC4)cc3c2CC(F)F)cn2ccnc12` [Example 131, 6-(3-(2,2-difluoroethyl)-5-(piperidin-4-yl)-1H-indol-2-yl)-8-fluoroimidazo[1,2-a] pyridine], the IC50 was below 0.1 µM in assay [1], 0.1 to 1 µM in assay [2] and 0.1 to 1 µM in assay [3].

As to `Cc1nc2c(C)cc(-c3[nH]c4ccc(C5CCNCC5)cc4c3C(C)C)cn2c1C` [Example 132, 6-(3-isopropyl-5-(piperidin-4-yl)-1H-indol-2-yl)-2,3,8-trimethylimidazo[1,2-a]pyridine], the figures for the IC50 in assay [1], in assay [2] and in assay [3] were below 0.1 µM, 0.1 to 1 µM and 0.1 to 1 µM, respectively.

As for `Cc1c(-c2[nH]c3ccc(C4CCNCC4)cc3c2C(C)C)cn2ccnc2c1Cl` [Example 133, 8-chloro-6-(3-isopropyl-5-(piperidin-4-yl)-1H-indol-2-yl)-7-methylimidazo[1,2-a]pyridine], the figures for the half-maximal inhibitory concentration (IC50) in assay [1], in assay [2] and in assay [3] were below 0.1 µM, 1 to 50 µM and below 0.1 µM, respectively.

Usually IC50 stands for the midpoint of a concentration-inhibition curve. A lower IC50 goes with higher potency.
